Test results: patent US6710060B2, “4-hydroxypiperidine derivatives having antiarrhythmic activity” (Mochida Pharmaceutical Co., Ltd., priority 1999, dated 2004)
Where a name gives a salt, the structure may show the parent alone.

Legend:
[1] = tested on: Electrocardiogram in Rats; assay: Effect on electrocardiogram in rats; assay type: in vivo; conditions: 5 mg/kg intravenous, anesthetized rat, two minutes after administration
Method: [Effect on Electrocardiogram in Rats]
After anesthetizing with 1.5 g/kg (s.c.) of urethane, a rat was fixed on a warm plate at its supination. Polyethylene tubes for administering a test compound and for measuring the blood pressure were inserted into and fixed to the jugular vein and femoral artery, respectively. The blood pressure of the artery was measured using a pressure transducer. An electrode was attached to the animal, electrocardiograms were led by the standard lead II. The heart rate was measured by using a heart rate counter. The test compound was given by intravenous injection when the blood pressure and heat rate had been stabilized after the operation. […] Each parameter on the electrocardiogram was processed using an analysis software running on the personal computer to calculate the rate of change as compared with that before administration.

[2] = tested on: Ischemia-Reperfusion Induced Arrythmia Model in Rats; assay: Suppression effect on ischemia-reperfusion induced arrythmia in rats; assay type: in vivo, rat; conditions: Table 2-2; 5 mg/kg by gavage; solvent group 57.1
Method: [Suppression Effect on Ischemia-Reperfusion Induced Arrythmia in Rats]
The test compounds were administered to rats starved from a day before by gavage at a dosage of 10 mL/kg under an awaken condition. The rats were anesthetized with 60 mg/kg (i.p.) of sodium pentobarbital after 35 minutes passed from the administration, and were fixed on a warmed sheet in supine position. The body temperature was kept at 37° C. during the experiment, and artificial respiration was started under a condition of 15 mL/Kg and 55 strokes/minutes. […] Then, the left chest was open, and the left major coronary artery at an atrium side was sewed using a needle with a thread in order to ligate the coronary artery. After stabilizing for about 10 minutes (after 60 minutes passed from the administration), the coronary artery was ligated for 5 minutes, and re-perfused for 10 minutes thereafter. The ligation of the coronary artery was conducted by inserting a suture through a snare made of a polyethylene tube and pulling the both ends of the suture, followed by pressing the snare onto the heart. The re-perfusion was conducted by removing the snare. The aortic blood pressure was measured with a pressure transducer. An electrocardiogram was led by a standard lead II. […] After the completion of the experiments, generation of ventricular fibrillation was confirmed for each individual using an analysis software running on the personal computer, and incidence (%) of the ventricular fibrillation was determined for each administration group.

[3] = tested on: female Crj(SD)IGS rats; conditions: oral gavage once a day for 14 days, 6-week aged female rats
[4] = tested on: isolated cardiac muscle cells; assay: Suppression activity of veratrine-induced contracture of isolated cardiac muscle; assay type: cell-based; conditions: Cardiac muscle cell, 5 min; rat isolated cardiac muscle cells, veratrine 100 gg/mL, 5 minutes after addition, probit analysis; read-out: IC50 (concentration of the test compound when half of the cells were contracted)
Method: [Suppression Activity of Veratrine-Induced Contracture of Isolated Cardiac Muscle]
Rats were anesthetized with 40 mg/kg (i.p.) of pentobarbital sodium and held in supine postion, and heparin was injected through the jugular vein. […] A polyethylene tube filled with Krebs-Ringer-HEPES (KRH) solution (pH 7.4) containing 1 mM CaCl2 was inserted through the aorta in retrograde manner, and the tube was fixed. The heart was extracted simultaneously with perfusion of the KRH solution at a hydraulic pressure of 70 cm water column. After thoroughly flushing the remaining blood by spontaneous contraction of the heart, stroke of the heart was halted by perfusion of the Ca^2+ free KRH solution for 10 minutes. The perfusion solutions described above were used after oxygenation with a mixed gas containing 95% O2 and 5% CO2 and keeping at a temperature of 37° C. Then, a KRH solution containing 25 μM CaCl2, 0.06% collagenase and 0.1% albumin was perfused for 20 minutes at 37° C. until the heart was soften. The ventricles were cut into pieces in the collagenase solution at 37° C., followed by an enzyme treatment for 10 minutes while aerating the solution with the mixed gas of 95% O2/5% CO2. The cells were dispersed by pipetting, and connective tissues were removed from the dispersed cells by filtering with a stainless steel mesh. After halting the enzyme reaction by adding albumin in the filtrate, the supernatant was discarded by centrifugation. The cells were suspended in the KRH solution containing 25 μM CaCl2 and 1% albumin, and the Ca^2+ concentration was increased stepwise by sequentially adding the CaCl2 solution in the suspension to a final concentration of 0.5 mM. A pellet of the cells was obtained by centrifugation after allowing the suspension to stand for 10 minutes. The pellet of the cells was laid on a column (10 cm in height and 15 mm in diameter) filled with the KRH solution containing 1 mM CaCl2 and 2% albumin, and the column was allowed to stand for 5 to 10 minutes. The supernatant was gently removed, and the number of rod-shaped cells in the precipitated cells was counted. The cells were re-suspended in the KRH solution containing 1 mM CaCl2 and 0.1% albumin, and pipetted into each well of a 48 well multi-plate (3548, COSTER) coated with poly-L-lysine so that each well contains 0.5 mL of the cell suspension with 1×10^4 cells/well. The suspension in each well was aerated with a mixed gas of 95% O2/5% CO2 at 37° C. for 1 hour to allow the cells to adhere on the bottom of the well. […] Then, the medium was replaced with a KRH solution containing a test compound, 0.025% lactic acid and 1 mM CaCl2, followed by aerating with a mixed gas containing 95% O2/5% CO2 at 37° C. for 30 minutes. After taking a photograph under a microscope, a KRH solution containing veratrine, 0.025% lactic acid and 1 mM CaCl2 was added to each well so that the final concentration of veratrin becomes 100 gg/mL, followed by taking a photograph of morphological changes of the cells after 5 minutes passed from the addition. A change from the rod-shape cell to a spherical cell was defined as contraction by veratrine. Veratrine in this concentration can contract all the cells. The concentration of the test compound when half of the cells were contracted was defined as IC50 (μmol/L) that can be calculated by a probit analysis.

CC(C)Oc1ccc(N(C)CCC2(O)CCN(C(c3ccccc3)c3ccccc3)CC2)cc1 [Example 278, 1-diphenylmethyl-4-[2-[N-methyl-N-(4-isopropoxyphenyl)-amino]ethyl]piperidin-4-ol dihydrochloride]
PQ Distance (rate of change) [1]: — (The rate of change at two minutes after administration is 15% or less as compared with that before administration.) | QRS Width (rate of change) [1]: — (The rate of change at two minutes after administration is 15% or less as compared with that before administration.) | Incidence (%) of the ventricular fibrillation [2]: 0.0% | daily dosage at which no fatal cases were observed [3]: ≤ 20 mg/kg | IC50 [4]: 300 nM
